Assay results reported in patent US20040171680A1, “Treating Syndrome X with substituted tetralins and indanes” (priority 2002, published 2004).
Read-outs that look alike come from different tables or passages of the source.

How the values were obtained:
[1] = target: T1, PPARδ (Homo sapiens, UniProt Q03181); experiment: Transfection Assay for PPARδ Receptors (PPAR-Gal4 / Gal4-Luciferase reporter in HEK293 cells); assay type: cell-based; conditions: fold induction; PPARδ standard: FI = 36.1
T1 construct: a Gal4-Luciferase reporter is co-transfected
T1 sequence (Q03181 171-441 limits assumed): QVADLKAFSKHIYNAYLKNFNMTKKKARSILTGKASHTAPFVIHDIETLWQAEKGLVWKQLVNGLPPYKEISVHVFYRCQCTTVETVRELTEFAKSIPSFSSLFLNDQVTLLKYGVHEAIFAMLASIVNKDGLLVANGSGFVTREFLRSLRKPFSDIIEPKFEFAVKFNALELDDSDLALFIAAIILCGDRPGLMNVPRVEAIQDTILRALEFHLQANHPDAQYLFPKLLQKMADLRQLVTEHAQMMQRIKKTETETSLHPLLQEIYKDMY
Procedure, shortened: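 HEK293 cells co-transfected with PPAR-Gal4 receptor and Gal4-luciferase reporter, then moved into 5% charcoal-treated FBS medium. Compounds applied for 24 h at 37 °C, 5% CO2; luciferase activity read with Steady-Glo.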

[2] = target: T2, PPARα (Rattus norvegicus, UniProt P37230); experiment: HD bDNA Assay (HD gene induction); assay type: cell-based; conditions: in section F; target not named there, values match the PPARα column; read-out: EC50
T2 construct: H4IIE rat hepatoma cell line was obtained from ATCC; host or cells: H4IIE rat hepatoma cells
T2 sequence (P37230 1-468): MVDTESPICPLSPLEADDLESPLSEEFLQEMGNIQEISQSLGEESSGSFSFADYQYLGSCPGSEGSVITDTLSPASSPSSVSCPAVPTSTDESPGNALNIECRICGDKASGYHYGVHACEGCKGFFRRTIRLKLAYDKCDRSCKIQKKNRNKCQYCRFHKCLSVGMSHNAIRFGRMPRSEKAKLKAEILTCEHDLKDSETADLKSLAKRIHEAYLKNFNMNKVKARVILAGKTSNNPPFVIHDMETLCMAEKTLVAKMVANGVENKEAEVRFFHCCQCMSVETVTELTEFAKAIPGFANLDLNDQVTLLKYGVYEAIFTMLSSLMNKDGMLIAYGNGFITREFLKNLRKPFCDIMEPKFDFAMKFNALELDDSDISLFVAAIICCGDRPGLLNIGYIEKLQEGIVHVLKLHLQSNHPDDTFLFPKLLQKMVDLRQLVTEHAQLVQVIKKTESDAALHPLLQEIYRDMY
Procedure, shortened: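 H4IIE rat hepatoma cells (~100,000/well) treated 24 hours at 37° C in low-serum medium (5% charcoal/dextran-treated calf serum) with compounds. HD mRNA quantified by branched DNA luminescence assay; EC50's from sigmoidal non-linear regression.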

[3] = target: T3, PPARγ (Homo sapiens, UniProt P37231); experiment: aP2 Assay for PPAR gamma Agonists (bDNA aP2 mRNA in preadipocytes); assay type: cell-based; conditions: fold induction; PPARγ standard: FI = 70.3
T3 construct: Following the challenge of the preadipocytes, cells may be lysed with lysis buffer; endogenous in cells; host or cells: preadipocytes
T3 sequence (P37231 1-505): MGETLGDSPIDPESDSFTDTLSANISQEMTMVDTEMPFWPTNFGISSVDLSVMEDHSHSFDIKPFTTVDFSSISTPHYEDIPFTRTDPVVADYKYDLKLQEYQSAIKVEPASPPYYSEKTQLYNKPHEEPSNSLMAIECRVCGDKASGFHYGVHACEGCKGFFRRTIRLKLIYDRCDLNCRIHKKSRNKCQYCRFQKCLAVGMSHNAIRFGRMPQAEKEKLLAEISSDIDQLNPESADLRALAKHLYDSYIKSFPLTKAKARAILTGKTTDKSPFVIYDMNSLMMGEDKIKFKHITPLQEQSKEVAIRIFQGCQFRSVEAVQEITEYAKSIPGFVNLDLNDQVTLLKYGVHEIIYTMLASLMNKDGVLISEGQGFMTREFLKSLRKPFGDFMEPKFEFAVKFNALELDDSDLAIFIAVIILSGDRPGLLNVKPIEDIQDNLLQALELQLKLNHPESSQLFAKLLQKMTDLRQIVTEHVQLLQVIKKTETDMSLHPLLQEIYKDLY
Text: aP2 Assay for PPAR gamma Agonists
The procedure is described in detail in Burris et al., Molecular Endocrinology, 1999, 13:410, which is hereby incorporated by reference in its entirety, and aP2 assay results of agonist intrinsic activity may be presented as fold increase over vehicle in induction of aP2 mRNA production.
Twenty-four hours after the initial seeding of the 96-well plates by hand (around 20,000/well), the differentiation assay may be initiated. Medium may be removed and replaced with […] of differentiation medium containing vehicle (DMSO) or test compounds. Cells may be returned to incubator for 24 hours culture. At the termination of the challenge, medium may be removed and 100 ul of lysis buffer may be added to initiate the bDNA aP2 mRNA assay. The branched DNA assay may be performed according to the manufacturer's protocol (Bayer Diagnostics; Emeryville, Calif.). Result may be expressed as the fold increase of aP2 mRNA production activated over vehicle controls. EC50's and Emax may be determined by non-linear regression with a sigmoidal fit curve.
Following the challenge of the preadipocytes, cells may be lysed with lysis buffer (Bayer Diagnostics) containing the aP2 oligonucleotides. After a 15 minute incubation at 53° C. or 30 minutes at 37° C. incubator, 70 ul of the lysis buffer from each well may be added to a corresponding capture well (preincubated with 70 ul of blocking buffer (Bayer Diagnostics)). The capture plate may be incubated overnight at 53° C. in a plate incubator (Bayer Diagnostics). After this incubation, the bDNA and labeled probes may be annealed as directed by the manufacturer. Following a 30-minute incubation with the luminescent alkaline phosphatase substrate, dioxitane, the luminescence may be quantitated in a Dynex MLX microtiter plate luminometer. Oligonucleotide probes designed to anneal to the aP2 mRNA and function in the bDNA mRNA detection system are designed with ProbeDesigner software (Bayer Diagnostics). This software package analyzes a target sequence of interest with a series of algorithms in order to determine which regions of the sequence can perform as locations for capture, label, or spacer probe annealing. The sequences of the oligonucleotides are as follows: […]

[4] = test system: db/db mice; experiment: Oral dosing in female db/db mice; assay type: in vivo; conditions: Mus musculus, 1.0 mpk, % change compared to vehicle
Protocol: The compound was prepared as suspensions in 0.5% hydroxypropylmethylcellulose (Dow Chemical, Midland, Mich.). The dosing volume was 10 mL/kg of body weight. […] Body weight was measured in the mornings on Day 1, prior to dosing, and on Day 12 before bleeding. 18-24 hours after the final dose for each group, the mice were anesthetized with CO2/O2 (70:30) and bled by retro-orbital sinus puncture into micro-tubes containing clog activator and then put in ice. The serum samples were prepared by centrifugation. Serum glucose and triglycerides were determined by using COBAS Mira Plus blood chemistry analyzer (Roche Diagnostics, N.J.). Serum insulin was measured by using ALPCO insulin ELISA kit.
Statistical analysis was performed using the program Prism (Graphpad, Monrovia, Calif.) and performing one-way ANOVA with a Dunnet's multiple comparison test.

[5] = Comparison of (S) and (R) isomer activity (test not stated); conditions: chiral center on C-2 of the indane ring
[6] = 120 h, 5 day oral dosing, read-out: Δ BW
[7] = 120 h, 5 day oral dosing, read-out: Δ Plasma Glucose
[8] = 120 h, 5 day oral dosing, read-out: Δ Plasma Insulin
[9] = 120 h, 5 day oral dosing, read-out: Δ Plasma TG

Structure (SMILES): CCCCCN(C(=O)Nc1ccc(N(C)C)cc1)C1Cc2ccc(SC(C)(C)C(=O)O)cc2C1 (stereo not shown) [Example 9, 2-{2-[3-(4-Dimethylaminophenyl)-1-pentylureido]indan-5-ylsulfanyl}-2-methylpropionic acid]
- PPARδ FI [1]: 1.0
- EC50 [2]: 131 nM
- PPARγ FI [3]: 2.9
- change in vivo at 1 mg/kg [4, 6]: 0.05%
- change in vivo at 1 mg/kg [4, 7]: -13%
- change in vivo at 1 mg/kg [4, 8]: -40%
- change in vivo at 1 mg/kg [4, 9]: -6%

Structure (SMILES): CCCCCN(C(=O)Nc1ccc(OC(F)(F)F)cc1)C1Cc2ccc(SC(C)(C)C(=O)O)cc2C1 (stereo not shown) [Example 8, 2-Methyl-2-{2-[1-pentyl-3-(4-trifluoromethoxyphenyl)ureido]indan-5-ylsulfanyl}-2-methylpropionic acid]
- PPARδ FI [1]: 5.9
- EC50 [2]: 73 nM
- PPARγ FI [3]: 1.9
- change in vivo at 1 mg/kg [4, 6]: -2%
- change in vivo at 1 mg/kg [4, 7]: -28%
- change in vivo at 1 mg/kg [4, 8]: -38%
- change in vivo at 1 mg/kg [4, 9]: -27%

Structure (SMILES): CCN(C(=O)Nc1ccc(C(C)C)cc1)C1Cc2ccc(SC(C)(C)C(=O)O)cc2C1 (stereo not shown) [Example 6, 2-{2-[1-Ethyl-3-(4-isopropylphenyl)ureido]indan-5-ylsulfanyl}-2-methylpropionic acid]
- PPARδ FI [1]: 3.6
- EC50 [2]: 56 nM
- PPARγ FI [3]: 1.9
- change in vivo at 1 mg/kg [4, 6]: -54%
- change in vivo at 1 mg/kg [4, 7]: -49%
- change in vivo at 1 mg/kg [4, 8]: -19%
- change in vivo at 1 mg/kg [4, 9]: -50%

Structure (SMILES): CCN(C(=O)Nc1ccc(N(C)C)cc1)C1Cc2ccc(SC(C)(C)C(=O)O)cc2C1 (stereo not shown) [Example 7, 2-{2-[3-(4-Dimethylaminophenyl)-1-ethylureido]indan-5-ylsulfanyl}-2-methylpropionic acid]
- PPARδ FI [1]: 0.8
- EC50 [2]: 75 nM
- PPARγ FI [3]: 0
- change in vivo at 1 mg/kg [4, 6]: -27%
- change in vivo at 1 mg/kg [4, 7]: -44%
- change in vivo at 1 mg/kg [4, 8]: -40%
- change in vivo at 1 mg/kg [4, 9]: -63%

Structure (SMILES): CCN(C(=O)Nc1ccc(OC(F)(F)F)cc1)C1Cc2ccc(SC(C)(C)C(=O)O)cc2C1 (stereo not shown) [Example 2, 2-{2-[1-Ethyl-3-(4-trifluoromethoxyphenyl)ureido]indan-5-ylsulfanyl}-2-methylpropionic acid]
- PPARδ FI [1]: 4.2
- EC50 [2]: 27 nM
- PPARγ FI [3]: 0.24
- change in vivo at 1 mg/kg [4, 6]: -59%
- change in vivo at 1 mg/kg ([4]; 264 h, 11 day oral dosing, read-out: Δ Plasma Glucose): -60%
- change in vivo at 1 mg/kg ([4]; 264 h, 11 day oral dosing, read-out: Δ Plasma Insulin): -53%
- change in vivo at 1 mg/kg ([4]; 264 h, 11 day oral dosing, read-out: Δ Plasma TG): -56%

Structure (SMILES): CCN(C(=O)Nc1ccc(OC(F)(F)F)cc1)[C@H]1Cc2ccc(SC(C)(C)C(=O)O)cc2C1 [Example 3, (S)-2-{2-[1-Ethyl-3-(4-trifluoromethoxyphenyl)ureido]indan-5-ylsulfanyl}-2-methylpropionic acid]
- change in vivo at 1 mg/kg [4, 7]: -66%
- change in vivo at 1 mg/kg [4, 8]: -69%
- change in vivo at 1 mg/kg [4, 9]: -66%
- change in vivo at 1 mg/kg ([4]; 264 h, 11 day oral dosing, read-out: Δ BW): -136%
- activity of the (S) isomer compared with the (R) isomer [5]: the (S) isomer is more active than the (R) isomer
